Counter-ions that a name gives are not always drawn.

The target of assay [1] is 5-HT4 receptor (Sus scrofa, UniProt Q6Q253). Nature of the assay: Piglet atria spontaneous beating screen. The assay is classed as cell-based. The following applies: piglet spontaneously beating atria. As for the experimental part:
(§1) 5-HT4 RECEPTOR ANTAGONIST ACTIVITY
Compounds were tested in the piglet spontaneous beating screen (Naunyn-Schmiedeberg's Arch. Pharmacol 342, 619-622). pKB (-log10 KB) value for the compound of Examples 3 and 7 were 9.8 and 7.7 respectively.

The target in assay [2] is T1, 5-HT4 receptor (Cavia porcellus, UniProt O70528).
T1 construct: guinea pig distal colon longitudinal muscle-myenteric plexus, 5-HT-evoked contraction
Nature of the assay: Guinea pig colon longitudinal muscle-myenteric plexus, 5-HT-evoked contraction. It counts as cell-based. To be noted: guinea pig distal colon. As for the experimental part:
as §1
Male guinea-pigs, weighing 250-400g are used. Longitudinal muscle-myentericplexus preparations, approximately 3 cm long, are obtained from the distal colon region. These are suspended under a 0.5 g load in isolated tissue baths containing Krebs solution bubbled with 5%, CO2 in O2 and maintained at 37° C. In all experiments, the Krebs solution also contains methiothepin 10^-7 M and granisetron 10^-6 M to block effects at 5-HT1, 5-HT2 and 5-HT3 receptors.
After construction of a simple concentration-response curve with 5-HT, using 30 s contact times and a 15 min dosing cycle, a concentration of 5-HT is selected so as to obtain a contraction of the muscle approximately 40-70% maximum(10^-9 M approx). The tissue is then alternately dosed every 15 min with this concentration of 5-HT and then with an approximately equi-effective concentration of the nicotine receptor stimulant, dimethylphenylpiperazinium (DMPP). After obtaining consistent responses to both 5-HT and DMPP, increasing concentrations of a putative 5-HT4 receptor antagonist are then added to the bathing solution. The effects of this compound are then determined as a percentage reduction of the contractions evoked by 5-HT or by DMPP. […] A compound which reduces the response to 5-HT but not to DMPP is believed to act as a 5-HT4 receptor antagonist.

Assay [3] deals with 5-HT4 receptor. Nature of the assay: 5-HT-induced motility in dog gastric pouch. The assay is classed as in vivo. The following applies: dose of 10 μg kg^-1. As for the experimental part: as §1
4) 5-HT-induced motility in dog gastric pouch
Compounds are tested in the in vivo method described in "Stimulation of canine motility by BRL 24924, a new gastric prokinetic agent", Bermudez et al, J. Gastrointestinal Motility, 2(4), 281-286.

T1 sequence (O70528 whole entry): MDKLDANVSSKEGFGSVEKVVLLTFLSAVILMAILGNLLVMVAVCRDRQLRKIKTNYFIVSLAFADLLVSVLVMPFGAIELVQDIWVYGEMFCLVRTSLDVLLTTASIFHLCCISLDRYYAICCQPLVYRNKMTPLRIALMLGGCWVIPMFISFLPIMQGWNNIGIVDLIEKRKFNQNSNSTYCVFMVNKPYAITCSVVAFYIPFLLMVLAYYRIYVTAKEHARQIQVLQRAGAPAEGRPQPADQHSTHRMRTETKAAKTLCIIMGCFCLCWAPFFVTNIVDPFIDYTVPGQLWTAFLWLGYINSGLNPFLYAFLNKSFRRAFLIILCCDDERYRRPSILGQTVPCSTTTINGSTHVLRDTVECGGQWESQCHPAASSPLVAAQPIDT
Chain of 5-HT4 receptor (Sus scrofa, UniProt Q6Q253) (Q6Q253 1-402): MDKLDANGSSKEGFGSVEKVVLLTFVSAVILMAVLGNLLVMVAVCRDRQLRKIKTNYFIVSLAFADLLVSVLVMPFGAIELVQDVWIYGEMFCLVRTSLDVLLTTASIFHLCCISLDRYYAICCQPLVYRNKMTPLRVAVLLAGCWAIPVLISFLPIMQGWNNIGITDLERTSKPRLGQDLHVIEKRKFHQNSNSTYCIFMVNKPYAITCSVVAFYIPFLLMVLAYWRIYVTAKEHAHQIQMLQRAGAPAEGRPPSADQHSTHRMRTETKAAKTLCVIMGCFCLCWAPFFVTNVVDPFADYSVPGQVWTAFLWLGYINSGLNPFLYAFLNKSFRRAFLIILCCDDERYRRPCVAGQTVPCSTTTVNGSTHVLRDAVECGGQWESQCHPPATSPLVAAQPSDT

`O=C(OCCN1CCCCC1)c1cc(Cl)cc2c1OCCC2` [Example E7, (1-Piperidyl)ethyl-6-chloro-[2H]-3,4-dihydro-1-benzopyran-8-carboxylate hydrochloride]: the “pKB (-log10 KB)” value in assay [1] was found to be 7.7.

Consider `CCCCN1CCC(CNC(=O)c2cc(Cl)c(N)c3c2OCCC3)CC1` [Example E12, 5-Amino-(1-butyl-4-piperidyl)methyl-6-chloro-[2H]-3,4-dihydro-1-benzopyran-8-carboxamide], for which the “5-HT4 receptor antagonist activity (in words)” value in assay [2] is given as “particularly good activity”.

For the compound `CCCCN1CCC(COC(=O)c2cc(Cl)cc3c2OCCC3)CC1` [Example E3, (1-Butyl-4-piperidyl)methyl-6-chloro-[2H]-3,4-dihydro-1-benzopyran-8-carboxylate], the “pKB (-log10 KB)” value in assay [1] is on record as 9.8. In assay [2], the “5-HT4 receptor antagonist activity (in words)” value was “particularly good activity”. The “inhibition of 5-HT-induced motility” value in assay [3] was “showed inhibition”.

As for `CCCCN1CCC(CNC(=O)c2cc(Cl)cc3c2OCCC3)CC1` [Example E8, (1-Butyl-4-piperidyl)methyl-6-chloro-[2H]-3,4-dihydro-1-benzopyran-8-carboxamide hydrochloride], the “5-HT4 receptor antagonist activity (in words)” value in assay [2] is reported as “particularly good activity”.

For the origin of these results see patent US6127379A, “Benzopyran, benzothiopyran and benzofuran derivatives as 5-HT4 antagonists” (SmithKline Beecham p.l.c., priority 1994, dated 2000).
